This data set deals with AhR target genes. Kind of data set: Expression of known AhR target genes in Hepa1 cells (RT-qPCR). The data set is classed as cell-based, mouse. The following applies: 10 nM, eight hours. As to the method:
Supplementary file pone.0088726.s001.tif: Figure S1 10-Cl-BBQ induces the expression of known AhR target genes. Hepa1 cells were treated with 10-Cl-BBQ (10 nM), TCDD (10 nM), or vehicle (DMSO) for eight hours. RNA was extracted and RT-qPCR was performed for a select set of known AhR target genes. AHRR: aryl hydrocarbon receptor repressor, ALDH3A1: aldehyde dehydrogenase family 3; subfamily A1, CYP1b1: cytochrome P450 1b1; Gstm3: glutathione S-transferase, mu 3; GST-Ya: glutathione S transferase, alpha 1; NQO1: NAD(P)H dehydrogenase quinone 1; UGT2b34: UDP glucuronosyltransferase 2 family, polypeptide B34. (TIF) Click here for additional data file.

For the molecule `O=c1c2cccc3cccc(c32)c2nc3ccc(Cl)cc3n12` [10-Cl-BBQ, 10-chloro-7H-benzimidazo[2,1-a]benzo[de]isoquinolin-7-one], the “induction of genes associated with AhR activation in hepatocytes” value is listed as “induced a battery of genes”.
